# Like-named read-outs stand apart in the source and are kept apart here.
# What was measured:
# Assay in all cases: biochemical
# Design in all cases: Reaction Biology 371-kinase panel at Km ATP, per cent enzyme activity relative to DMSO, single dose in duplicate
# Conditions in all cases: duplicate measurements, Km ATP
# [1] = target: CDK9/CYCLIN K (Homo sapiens, UniProt P50750)
# In short: (§1)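 Activity of each kinase, normalised to DMSO-treated controls, served as the read-out. The inhibitor was tested at 300 nM against 371 kinases in vitro. Curves fitted by variable-slope sigmoidal dose-response, constrained to a bottom of 0, gave IC50.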
# [2] = target: T1, CK2a2 (Homo sapiens, UniProt P19784)
# T1 construct: gene CSNK2A2
# In short: as §1
# [3] = target: ERK2/MAPK1 (Homo sapiens, UniProt P28482)
# In short: as §1
# [4] = target: FLT1/VEGFR1 (Homo sapiens, UniProt P17948)
# In short: as §1
# [5] = target: T2, IR (Homo sapiens, UniProt P06213)
# T2 construct: gene INSR
# In short: as §1
# [6] = target: MARK4 (Homo sapiens, UniProt Q96L34)
# In short: as §1
# [7] = target: MYLK4 (Homo sapiens, UniProt Q86YV6)
# In short: as §1
# [8] = target: OSR1/OXSR1 (Homo sapiens, UniProt O95747)
# In short: as §1
# [9] = target: PHKg1 (Homo sapiens, UniProt Q16816)
# In short: as §1
# [10] = target: PIM3 (Homo sapiens, UniProt Q86V86)
# In short: as §1
# [11] = target: T3, PKA (Homo sapiens, UniProt P17612)
# T3 construct: gene PRKACA
# In short: as §1
# [12] = target: T4, PKCiota (Homo sapiens, UniProt P41743)
# T4 construct: gene PRKCI
# In short: as §1
# [13] = target: T5, PKMYT1 (Homo sapiens, UniProt Q99640)
# T5 sequence (Q99640 1-499): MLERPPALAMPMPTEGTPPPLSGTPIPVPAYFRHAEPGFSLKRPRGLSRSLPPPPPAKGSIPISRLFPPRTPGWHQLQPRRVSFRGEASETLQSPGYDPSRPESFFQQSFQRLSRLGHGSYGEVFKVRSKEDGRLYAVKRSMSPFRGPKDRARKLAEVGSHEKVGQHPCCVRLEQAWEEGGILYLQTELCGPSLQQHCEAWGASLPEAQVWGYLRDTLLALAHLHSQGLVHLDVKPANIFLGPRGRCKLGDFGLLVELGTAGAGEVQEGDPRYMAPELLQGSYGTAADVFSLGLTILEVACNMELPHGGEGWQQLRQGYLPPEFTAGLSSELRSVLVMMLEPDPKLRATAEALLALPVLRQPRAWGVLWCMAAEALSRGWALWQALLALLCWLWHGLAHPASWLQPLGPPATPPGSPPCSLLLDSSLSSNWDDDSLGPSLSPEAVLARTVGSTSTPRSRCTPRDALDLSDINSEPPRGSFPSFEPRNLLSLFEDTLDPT
# In short: as §1
# [14] = target: T6, RIPK5 (Homo sapiens, UniProt Q6XUX3)
# T6 construct: gene DSTYK
# In short: as §1
# [15] = target: SRPK1 (Homo sapiens, UniProt Q96SB4)
# In short: as §1
# [16] = target: SRPK2 (Homo sapiens, UniProt P78362)
# In short: as §1
# [17] = read-out: % Enzyme Activity (relative to DMSO controls) / TP-0005801 (0.3µM) / Data 1
# [18] = read-out: % Enzyme Activity (relative to DMSO controls) / TP-0005801 (0.3µM) / Data 2
# T4 sequence (P41743 whole entry): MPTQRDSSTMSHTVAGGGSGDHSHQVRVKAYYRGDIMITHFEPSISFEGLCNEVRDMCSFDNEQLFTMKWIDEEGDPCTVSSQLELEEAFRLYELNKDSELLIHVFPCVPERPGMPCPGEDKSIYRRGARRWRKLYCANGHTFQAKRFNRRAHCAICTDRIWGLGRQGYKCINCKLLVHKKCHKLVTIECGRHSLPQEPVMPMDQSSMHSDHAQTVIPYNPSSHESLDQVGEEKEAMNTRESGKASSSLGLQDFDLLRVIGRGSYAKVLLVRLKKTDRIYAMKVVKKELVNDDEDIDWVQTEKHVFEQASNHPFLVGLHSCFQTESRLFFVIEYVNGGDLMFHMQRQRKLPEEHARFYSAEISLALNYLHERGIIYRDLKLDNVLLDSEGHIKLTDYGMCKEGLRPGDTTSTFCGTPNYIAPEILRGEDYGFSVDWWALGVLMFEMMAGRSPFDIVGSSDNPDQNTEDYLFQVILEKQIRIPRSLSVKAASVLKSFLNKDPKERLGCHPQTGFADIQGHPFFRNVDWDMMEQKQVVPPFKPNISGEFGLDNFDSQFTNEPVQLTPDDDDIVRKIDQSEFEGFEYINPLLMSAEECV
# ERK2/MAPK1, sequence (P28482 whole entry): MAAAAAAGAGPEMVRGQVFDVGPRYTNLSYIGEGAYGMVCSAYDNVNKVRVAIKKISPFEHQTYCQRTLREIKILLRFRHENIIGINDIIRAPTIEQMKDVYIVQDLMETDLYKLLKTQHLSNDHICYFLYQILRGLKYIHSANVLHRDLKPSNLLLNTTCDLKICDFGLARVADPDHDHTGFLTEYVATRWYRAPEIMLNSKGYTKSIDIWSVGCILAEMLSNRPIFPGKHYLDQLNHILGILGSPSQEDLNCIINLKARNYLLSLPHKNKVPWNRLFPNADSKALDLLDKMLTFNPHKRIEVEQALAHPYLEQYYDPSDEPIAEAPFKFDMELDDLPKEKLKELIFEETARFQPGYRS
# MYLK4, sequence (Q86YV6 whole entry): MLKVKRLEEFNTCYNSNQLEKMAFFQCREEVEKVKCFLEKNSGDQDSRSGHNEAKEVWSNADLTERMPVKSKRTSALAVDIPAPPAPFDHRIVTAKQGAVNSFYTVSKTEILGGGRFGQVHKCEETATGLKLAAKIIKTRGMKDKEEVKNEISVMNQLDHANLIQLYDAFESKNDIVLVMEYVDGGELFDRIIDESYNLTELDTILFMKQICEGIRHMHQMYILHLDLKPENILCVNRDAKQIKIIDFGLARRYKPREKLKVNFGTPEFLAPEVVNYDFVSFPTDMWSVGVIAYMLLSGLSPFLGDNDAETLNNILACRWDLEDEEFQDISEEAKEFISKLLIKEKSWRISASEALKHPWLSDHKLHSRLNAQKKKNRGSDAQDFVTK
# SRPK1, sequence (Q96SB4 whole entry): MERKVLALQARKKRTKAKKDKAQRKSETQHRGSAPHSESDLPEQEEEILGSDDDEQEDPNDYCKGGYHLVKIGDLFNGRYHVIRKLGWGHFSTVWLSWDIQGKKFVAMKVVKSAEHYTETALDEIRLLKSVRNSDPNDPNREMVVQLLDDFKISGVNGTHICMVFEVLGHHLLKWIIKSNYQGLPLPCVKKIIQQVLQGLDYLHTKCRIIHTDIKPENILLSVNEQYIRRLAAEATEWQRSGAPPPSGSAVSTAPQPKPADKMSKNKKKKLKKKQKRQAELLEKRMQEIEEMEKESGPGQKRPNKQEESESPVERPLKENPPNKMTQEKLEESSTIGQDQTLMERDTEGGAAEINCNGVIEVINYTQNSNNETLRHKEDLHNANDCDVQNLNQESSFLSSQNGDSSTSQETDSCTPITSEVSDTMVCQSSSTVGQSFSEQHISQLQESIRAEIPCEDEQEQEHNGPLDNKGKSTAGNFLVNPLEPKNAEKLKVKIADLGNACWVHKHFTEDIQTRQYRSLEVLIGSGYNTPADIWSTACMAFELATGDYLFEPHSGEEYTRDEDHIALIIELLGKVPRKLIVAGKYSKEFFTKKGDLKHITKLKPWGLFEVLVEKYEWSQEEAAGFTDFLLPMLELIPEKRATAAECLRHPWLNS
# T1 sequence (P19784 whole entry): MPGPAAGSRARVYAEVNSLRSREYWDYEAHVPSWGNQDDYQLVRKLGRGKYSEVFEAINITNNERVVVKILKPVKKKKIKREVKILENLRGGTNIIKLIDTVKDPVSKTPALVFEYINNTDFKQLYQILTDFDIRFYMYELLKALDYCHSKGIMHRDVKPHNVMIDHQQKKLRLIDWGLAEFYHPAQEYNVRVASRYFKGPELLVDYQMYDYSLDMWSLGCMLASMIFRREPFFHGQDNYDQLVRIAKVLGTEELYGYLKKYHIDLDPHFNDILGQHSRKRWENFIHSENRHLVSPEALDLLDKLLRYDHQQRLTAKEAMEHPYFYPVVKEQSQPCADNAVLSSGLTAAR
# FLT1/VEGFR1, sequence (P17948 whole entry): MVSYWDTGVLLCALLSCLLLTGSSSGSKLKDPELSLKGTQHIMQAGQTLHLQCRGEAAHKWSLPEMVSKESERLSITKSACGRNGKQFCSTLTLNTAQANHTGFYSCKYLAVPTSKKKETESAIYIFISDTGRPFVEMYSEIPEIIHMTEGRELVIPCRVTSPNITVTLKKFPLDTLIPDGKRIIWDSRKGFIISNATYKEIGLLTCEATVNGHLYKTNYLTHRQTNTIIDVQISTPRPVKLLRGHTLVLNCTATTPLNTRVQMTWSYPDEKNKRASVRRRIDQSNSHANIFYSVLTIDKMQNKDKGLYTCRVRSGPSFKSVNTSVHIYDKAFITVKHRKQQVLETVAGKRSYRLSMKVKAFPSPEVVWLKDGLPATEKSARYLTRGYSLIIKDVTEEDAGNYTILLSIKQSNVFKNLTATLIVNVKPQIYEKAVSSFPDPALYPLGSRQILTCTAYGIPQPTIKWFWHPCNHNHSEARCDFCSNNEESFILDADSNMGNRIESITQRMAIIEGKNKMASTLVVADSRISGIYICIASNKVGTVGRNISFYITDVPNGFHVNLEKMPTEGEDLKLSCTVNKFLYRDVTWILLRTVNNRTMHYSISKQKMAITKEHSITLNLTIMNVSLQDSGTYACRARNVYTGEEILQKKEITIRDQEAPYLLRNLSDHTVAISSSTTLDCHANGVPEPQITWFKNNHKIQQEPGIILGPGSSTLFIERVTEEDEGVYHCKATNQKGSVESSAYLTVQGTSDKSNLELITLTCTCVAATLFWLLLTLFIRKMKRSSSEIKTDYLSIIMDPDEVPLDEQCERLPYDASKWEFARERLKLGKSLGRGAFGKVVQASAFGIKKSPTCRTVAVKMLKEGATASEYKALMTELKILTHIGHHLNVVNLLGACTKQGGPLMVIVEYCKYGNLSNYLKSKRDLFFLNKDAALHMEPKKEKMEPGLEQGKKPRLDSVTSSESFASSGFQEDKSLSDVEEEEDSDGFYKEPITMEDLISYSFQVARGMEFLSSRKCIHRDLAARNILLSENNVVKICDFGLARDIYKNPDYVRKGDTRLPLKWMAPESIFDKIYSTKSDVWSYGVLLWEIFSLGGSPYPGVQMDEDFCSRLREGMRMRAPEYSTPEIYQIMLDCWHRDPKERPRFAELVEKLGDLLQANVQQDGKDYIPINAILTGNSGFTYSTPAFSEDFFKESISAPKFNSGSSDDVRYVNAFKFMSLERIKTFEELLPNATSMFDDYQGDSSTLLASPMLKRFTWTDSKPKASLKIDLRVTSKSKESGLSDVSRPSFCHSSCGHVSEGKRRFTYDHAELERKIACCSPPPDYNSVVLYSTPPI
# PHKg1, sequence (Q16816 whole entry): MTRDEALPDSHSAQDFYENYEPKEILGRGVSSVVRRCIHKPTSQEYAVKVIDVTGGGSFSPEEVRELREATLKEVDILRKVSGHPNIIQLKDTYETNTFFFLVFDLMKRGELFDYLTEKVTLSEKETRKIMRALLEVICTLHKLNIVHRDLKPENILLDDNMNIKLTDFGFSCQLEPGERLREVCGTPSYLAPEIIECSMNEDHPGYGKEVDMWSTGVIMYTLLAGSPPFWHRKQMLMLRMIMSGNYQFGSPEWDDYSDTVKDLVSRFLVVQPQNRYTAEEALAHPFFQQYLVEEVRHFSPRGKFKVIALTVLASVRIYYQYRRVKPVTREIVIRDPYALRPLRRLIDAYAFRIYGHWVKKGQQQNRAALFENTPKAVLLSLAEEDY
# OSR1/OXSR1, sequence (O95747 whole entry): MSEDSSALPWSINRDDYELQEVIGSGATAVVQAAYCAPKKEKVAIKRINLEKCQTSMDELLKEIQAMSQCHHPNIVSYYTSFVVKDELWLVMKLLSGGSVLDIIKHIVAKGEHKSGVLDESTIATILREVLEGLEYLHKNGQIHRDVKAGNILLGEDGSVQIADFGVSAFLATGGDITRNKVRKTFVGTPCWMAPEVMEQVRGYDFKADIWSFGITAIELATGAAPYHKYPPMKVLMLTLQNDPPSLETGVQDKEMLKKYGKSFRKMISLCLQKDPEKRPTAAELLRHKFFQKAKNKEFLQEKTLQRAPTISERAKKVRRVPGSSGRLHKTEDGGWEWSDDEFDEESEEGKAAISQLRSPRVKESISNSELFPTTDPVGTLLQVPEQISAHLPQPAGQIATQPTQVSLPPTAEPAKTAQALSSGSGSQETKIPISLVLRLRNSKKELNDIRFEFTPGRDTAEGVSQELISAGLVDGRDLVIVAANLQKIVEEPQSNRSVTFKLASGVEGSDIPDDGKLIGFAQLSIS
structure (smiles),measurement,setting,value
COc1cc(N2CCN(C)CC2)c(C)cc1Nc1ncc(Br)c(Nc2cccnc2N(C)C)n1 [TP-5801],remaining activity at 0.3 µM,[1]; [17],108%
same,remaining activity at 0.3 µM,[1]; [18],105%
same,remaining activity at 0.3 µM,[2]; [17],107%
same,remaining activity at 0.3 µM,[2]; [18],89.1%
same,remaining activity at 0.3 µM,[3]; [17],87.1%
same,remaining activity at 0.3 µM,[3]; [18],86.1%
same,remaining activity at 0.3 µM,[4]; [17],96.8%
same,remaining activity at 0.3 µM,[4]; [18],96.2%
same,remaining activity at 0.3 µM,[5]; [17],3%
same,remaining activity at 0.3 µM,[5]; [18],2.81%
same,remaining activity at 0.3 µM,[6]; [17],89.8%
same,remaining activity at 0.3 µM,[6]; [18],88.4%
same,remaining activity at 0.3 µM,[7]; [17],108%
same,remaining activity at 0.3 µM,[7]; [18],96.9%
same,remaining activity at 0.3 µM,[8]; [17],110%
same,remaining activity at 0.3 µM,[8]; [18],104%
same,remaining activity at 0.3 µM,[9]; [17],30.6%
same,remaining activity at 0.3 µM,[9]; [18],29.7%
same,remaining activity at 0.3 µM,[10]; [17],96%
same,remaining activity at 0.3 µM,[10]; [18],95.5%
same,remaining activity at 0.3 µM,[11]; [17],110%
same,remaining activity at 0.3 µM,[11]; [18],108%
same,remaining activity at 0.3 µM,[12]; [17],101%
same,remaining activity at 0.3 µM,[12]; [18],99.1%
same,remaining activity at 0.3 µM,[13]; [17],62.9%
same,remaining activity at 0.3 µM,[13]; [18],62.8%
same,remaining activity at 0.3 µM,[14]; [17],108%
same,remaining activity at 0.3 µM,[14]; [18],101%
same,remaining activity at 0.3 µM,[15]; [17],96.5%
same,remaining activity at 0.3 µM,[15]; [18],93.9%
same,remaining activity at 0.3 µM,[16]; [17],114%
same,remaining activity at 0.3 µM,[16]; [18],110%
